Results: patent US8207142B2, “Inhibitor of DNA methylation” (priority 2001, dated 2012)
Several values for one entry are separate records, joined by “and”; a condition that tells them apart may be missing. Equal values may be shown once.

Key:
10T1/2 cells [1] = test: Induction of a myogenic phenotype (myotube formation) in 10T1/2 cells; type: cell-based, mouse; design: key to Muscle Formation: + representing minimal muscle formation; scored for muscle cells 9-10 days later as + to +++; +++ representing maximal muscle formation
Description: Cells were plated (3×10^5 cells/100-mm dish) and treated 24 hours later with the indicated concentrations of compounds. The medium was either changed 24 hours or 48 hours after drug treatment. Myotube formation was assayed in 10T1/2 cells as previously described (Constantinides et al., Nature 267:364-366, 1977). […] The ability of Zebularine to cause 10T1/2 cells to undergo the myogenic switch was therefore tested (FIG. 7).

[2] = system: p16 gene expression in T24 cells; test: RT-PCR analysis of p16 expression in T24 cells; type: cell-based, human; conditions: 3 μM
Description: The T24 cell line was obtained from the American Type Culture Collection (Rockville, Md.) and cultured in DMEM supplemented with 10% heat-inactivated fetal calf serum and 100 U/ml penicillin-streptomycin. Cultures were grown in a humidified incubator at 37° C. in an atmosphere of 5% CO2 in air.
Cells were plated (3×10^5 cells/100-mm dish) and treated 24 hours later with the indicated concentrations of compounds. The medium was either changed 24 hours or 48 hours after drug treatment.
DNA and RNA were isolated three days after treatment using the NucleoBond RNA/DNA Midi Kit (Clontech Laboratories, Inc., Palo Alto, Calif.).
Total RNA (˜10 μg) was reverse-transcribed using the following reagents: 100 units RNAsin (Promega Corp., Madison, Wis.), 0.1 M DTT (Life Technologies, Inc.), 1000 units of MMLV-RT (Life Technologies, Inc.), 1 mM deoxynucleotide triphosphates (Boehringer Mannheim, Germany), 75 μg/ml BSA, 1× MMLV-RT buffer (Life Technologies, Inc.), and 0.025 ODU Random Hexamers (Amersham-Pharmacia Biotech, Piscataway, N.J.). The reaction mixture was incubated for 10 minutes at 25° C., 45 minutes at 42° C., 3 minutes at 90° C., and chilled for 5 minutes at 4° C., during which time 1.25 μl of MMLV-RT (200 U/μl) were added and the sample then incubated for 45 minutes at 42° C., 10 minutes at 75° C., and stored at −20° C.
cDNA was amplified with primers specific for either p16 or GAPDH. Briefly, PCR reactions were performed in 25-μl volumes at 94° C. for 3 minutes, 28 cycles at 94° C. for 1 minute, 56° C. for 30 seconds, 72° C. for 40 seconds, and a final extension step at 72° C. for 5 min (p16 amplification), and 94° C. for 1 minute, 19 cycles at 94° C. for 1 minute, 58° C. for 30 seconds, 72° C. for 45 seconds, and a final extension step at 72° C. for 2 minutes (GAPDH amplification).
PCR amplifications were performed with cDNA template concentration equivalent to 100 ng of RNA in 10% DMSO. All reactions were analyzed in the linear range of amplification. PCR products were resolved on 2% agarose gels and subsequently transferred to a nylon membrane (Zetaprobe; Bio-Rad, Richmond, Calif.) under alkaline conditions. All blots were hybridized with a γ-^32P-labeled internal oligonucleotide probe, using protocols previously described (Xiong and Laird, Nuc. Acids Res. 25:2532-2534, 1997).
Since 5-Aza-CdR has been shown previously to induce p16 expression in a dose-dependent manner (Bender et al., Cancer Res. 58:95-101, 1998), the two ribonucleoside analogs 5-Aza-CR and Zeb were examined to determine their abilities to induce p16 expression (FIG. 8). Because Zeb is stable in aqueous solution, the effect of prolonging Zeb treatment on p16 expression was tested by treating these cells with different concentrations of Zeb for either 24 hours or 48 hours. RT-PCR was then performed to determine whether p16 gene was induced by drug treatment.

p16 exon 2 = test: Ms-SNuPE quantitation of DNA methylation in T24 cells, p16 exon 2; type: cell-based, human; conditions: 3 μM, 24 hrs
Description: (§1) The average methylation at defined CpG sites was quantitated using a Ms-SNuPE assay, as described by Gonzalgo and Jones (Nucleic Acids Res. 25:2529-2531, 1997) and U.S. Pat. No. 6,251,594. Briefly, genomic DNA (˜4 μg) was digested overnight with 4 units of EcoRI (Boehringer Mannheim) (p16 promoter/exon 1 and p16 exon 2; FIG. 9A) or with 4 units of RsaI (Boehringer Mannheim) (P3; FIG. 9B) to cut outside the region of interest.
(§2) After standard treatment with sodium bisulfite, a PCR product of the region was generated as template for top-strand methylation analysis. The sequences of the primers used for bisulfite-treated DNA amplification were as follows: […]
p16 exon 2: 94° C. for 3 minutes, 94° C. for 1 minute, 62° C. for 45 seconds, and 72° C. for 45 seconds for 40 cycles, with a final extension step at 72° C. for 10 minutes.
(§3) Duplicates of 4 μl of template were then added to 6 μl of mixture consisting of 1× PCR buffer, 1 μM final concentration primers, 1 μCi of [^32P]dCTP or dTTP, and 1 unit 1:1 Taq/TaqStart antibody (Clontech, Palo Alto, Calif.). Single nucleotide extension involved incubation at 95° C. for 1 minute, then 50° C. for 2 minutes, and finally 72° C. for 1 minute (p16 promoter/exon1 and P16 exon 2) and 95° C. for 1 minute, then 46° C. for 30 seconds, and finally 72° C. for 20 seconds (P3). The sequences for SNuPE primers were as follows: […]
(§4) After briefly spinning down the tubes, 4 μl of stop solution were added to the 10-μl reaction volume, and the samples were boiled for 5 minutes at 95° C. before loading 1.5 μl onto a 15% denaturing polyacrylamide gel (7 M urea). The gel was run at 90 W for 1.5 hours and then dried at 80° C. for 40 minutes. The gel was exposed to a phosphorimaging cassette for quantitation of the ratio of [^32P]dCTP versus [^32P]dTTP incorporation, and the quantitation of the percent methylation was averaged from three separate CpG sites. The gel was then exposed to BioMax MR film (Kodak) to record experimental results.

p3 locus = test: Ms-SNuPE quantitation of DNA methylation in 10T1/2 cells; type: cell-based, mouse; conditions: 0.3 μM, 24 hours, control 86
Description: as §1, §2
P3: 95° C. for 2 minutes, 95° C. for 1 minute, 50° C. for 50 seconds, and 72° C. for 1 minute for 40 cycles, with a final extension at 72° C. for 10 minutes.
as §3, §4

p16 promoter = test: Ms-SNuPE quantitation of DNA methylation in T24 cells, p16 promoter; type: cell-based, human; conditions: 3 μM, 24 hrs; control 96
Description: as §1, §2
p16 promoter/exon 1: 94° C. for 3 minutes, 94° C. for 45 seconds, 67° C. for 45 seconds, and 72° C. for 45 seconds for 40 cycles, with a final extension step at 72° C. for 10 minutes.
as §3, §4

T24 cells = test: Colony-formation assay (decrease in plating efficiency) in T24 cells; type: cell-based, human; conditions: 3 μM, 24 hrs
Description: (§5) The percentage cell survival was assessed by dividing the mean colony number on the treated plates divided by the mean colony number on the untreated plates ×100.

10T1/2 cells [3] = test: Colony-formation assay (plating efficiency) in 10T1/2 cells; type: cell-based, mouse
Description: as §5

[4] = system: DNA methylation of the am^RIP and ψ63 sequences; test: Southern blot analysis of DNA methylation in N. crassa (Dpn II vs Sau3AI digests); type: cell-based, Neurospora crassa; conditions: 12 and 24 μM 5-AC; 0.33 and 3.3 μM TSA; 20, 39, 78, 160 and 310 μM Zebularine
Description: DNA was digested with Dpn II (D) or Sau3AI (S), fractionated by gel electrophoresis, transferred to a membrane and probed for am (FIG. 4A) or ψ63 (FIG. 4B) sequences. Dpn II and Sau3AI both recognize the sequence GATC, but Sau3AI fails to cleave if the C residue is methylated. Thus, differences between S and D lanes are indicative of DNA methylation.
The ramp symbols at the top of the figure represent increasing concentrations of drug. Drug concentrations were 12 and 24 μM 5-AC; 0.33 and 3.3 μM TSA; and 20, 39, 78, 160 and 310 μM Zebularine. The positions of selected size standards (kb) are indicated.
Southern hybridizations were performed on DNA samples (−1 μg) isolated from liquid cultures inoculated with 7×10^4 conidia/ml. DNA was digested with Dpn II (D) or Sau3AI (S), fractionated by gel electrophoresis, transferred to a nylon membrane and probed for am^RIP (FIG. 4A) or ψ63 (FIG. 4B) sequences. The restriction endonucleases Dpn II and-Sau3AI both recognize the sequence GATC, but Sau3AI fails to cleave if the C residue is methylated. Drug concentrations were […] 5-AC, 0.33 and 3.3 μM TSA, and […] Zebularine.
The positions of selected size standards (kb) and the origin (ori) are indicated. […] Differences between S and D lanes are indicative of DNA methylation.

Q: How did the “Muscle Formation” value (10T1/2 cells [1]; 0.3 μM, 24 hours treatment, scored 9-10 days later) turn out when `Nc1ncn([C@H]2C[C@H](O)[C@@H](CO)O2)c(=O)n1` [5-Aza-CdR, 5-aza-2′-deoxycytidine] was run?
A: +++

Q: And the “muscle formation (micrographs, in words)” value (10T1/2 cells [1]; 10T1/2 cells, approximately 9-10 days after drug treatment)?
A: formed multinucleated myotubes

Q: What about the “p16 expression (RT-PCR)” value [2] of the same compound?
A: robust expression of p16

Q: What about the “Relative p16 Exon 2 De-methylation (%)” value (p16 exon 2) of the same compound?
A: 47 +/− 1%

Q: And the “p16 Exon 2 Methylation (%)” value (p16 exon 2; control 96)?
A: 51 +/− 1%

Q: And the “% Methylation” value (p3 locus)?
A: 54% and 54 +/− 5%

Q: And the “p16 Promoter Methylation (%)” value (p16 promoter)?
A: 52% and 52 +/− 5%

Q: And the “Toxicity (%) (decrease in plating efficiency)” value (T24 cells)?
A: 75%

Q: And the “decrease in plating deficiency (cytotoxicity)” value (10T1/2 cells [3]; 0.3 μM, 10T1/2 cells)?
A: 74%

Q: What about the “Ave. Plating Efficiency (%)” value (10T1/2 cells [3]; 0.3 μM, 250 cells, stained after 14-16 days, control 22) of the same compound?
A: 5%

Q: And the cell death observed (10T1/2 cells [3]; 10T1/2 cells, 0.3 μM 5-Aza-CdR, 3 μM 5-Aza-CR, 30 μM Zebularine)?
A: appreciable cell death

Q: `CC(/C=C/C(=O)NO)=C\[C@@H](C)C(=O)c1ccc(N(C)C)cc1` [TSA, trichostatin A] was tested. Which “effect on DNA methylation (Southern blot)” value [4] did it give?
A: selective inhibition of methylation
